Data taken from patent US20230118497A1, “PYRAZOLE-CONTAINING POLYCYCLIC DERIVATIVE INHIBITOR, PREPARATION METHOD THEREFOR AND APPLICATION THEREOF” (Shanghai Hansoh Biomedical Co., Ltd., priority 2019, published 2023).
Like-named read-outs stand apart in the source and are kept apart here.

Key:
[1] = target: T1, CYP450 enzyme isoform 1A2 (Homo sapiens, UniProt P05177); assay: CYP enzyme single-point inhibition assay, 1A2; format: in vitro ADME; settings: human liver microsome, single-point method
T1 construct: single-point method using human liver microsome incubation system; from tissue; host or cells: human liver microsomes
T1 sequence (P05177 1-516): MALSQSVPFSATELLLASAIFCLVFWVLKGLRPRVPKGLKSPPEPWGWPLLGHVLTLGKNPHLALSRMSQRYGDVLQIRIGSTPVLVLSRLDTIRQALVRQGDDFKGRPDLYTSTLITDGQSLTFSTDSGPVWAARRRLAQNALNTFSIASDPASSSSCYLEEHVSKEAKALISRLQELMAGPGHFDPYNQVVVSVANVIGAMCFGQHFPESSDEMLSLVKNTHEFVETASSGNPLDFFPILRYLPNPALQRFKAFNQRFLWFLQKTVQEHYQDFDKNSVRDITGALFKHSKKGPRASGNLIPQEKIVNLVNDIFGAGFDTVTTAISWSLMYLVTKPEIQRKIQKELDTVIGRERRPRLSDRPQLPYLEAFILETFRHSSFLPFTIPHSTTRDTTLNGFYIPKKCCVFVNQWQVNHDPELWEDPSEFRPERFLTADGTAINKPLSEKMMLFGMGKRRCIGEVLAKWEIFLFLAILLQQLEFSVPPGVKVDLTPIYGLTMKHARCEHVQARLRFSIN
Description: (§1) Test Example 7. CYP Enzyme Single-Point Inhibition Assay
(§2) The inhibition of the compounds on CYP450 enzyme isoformwas rapidly predicted by single-point method using human liver microsome incubation system.
(§3) 2.5 mM NADPH: 4.165 mg of NADPH (reduced nicotinamide adenine dinucleotide phosphate) was weighed, followed by addition of 100 mM phosphate buffer to 2 mL. 0.25 mg/mL microsome solution: 4 mL of 100 mM phosphate buffer was added to 50 μL of 20 mg/mL microsome solution and mixed well.
(§4) The test compound of the Example was weighed, diluted to 10 mM with DMSO and then to 100 μM with 100 mM phosphate buffer.
(§5) 1. 40 μL of liver microsome, 10 μL of substrate and 10 μL of the test compound were added to a 96-well plate and pre-incubated for 3 min.
(§6) 2. 40 μL of NADPH was added.
(§7) 3. 300 μL of acetonitrile stop solution containing internal standard was added at 20 min.
(§8) 4. The sample was centrifuged and injected.

[2] = target: T2, CYP450 enzyme isoform 2D6 (Homo sapiens, UniProt P10635); assay: CYP enzyme single-point inhibition assay, 2D6; format: in vitro ADME; settings: human liver microsome, single-point method
T2 construct: single-point method using human liver microsome incubation system; from tissue; host or cells: human liver microsomes
Description: as §1, §2, §3, §4, §5, §6, §7, §8

[3] = Pharmacokinetic assay in Balb/C mice; format: in vivo; settings: male, mouse, po, p.o. 5 mg/kg, plasma, 0.5% CMC-Na (1% Tween 80); for AUC(0-t): read-out: Area under curve AUC0-t; for MRT inf: read-out: Average residence time MRT0-∞; for half-life: read-out: Half life t1/2 (converted); for Tmax: read-out: Peak time tmax; for Cmax: read-out: Plasma concentration Cmax
Description: Test Example 3. Pharmacokinetic Assay in Balb/C Mice
Balb/C mice were used as test animals. The pharmacokinetic behavior of the compounds of Examples was studied in mouse body (plasma) by orally administration at a dose of 5 mg/kg.
Male Balb/C mice (6 mice per group), purchased from Shanghai Jiesijie Laboratory Animal Co., LTD, with Certificate No.: SCXK (Shanghai) 2013-0006 N0.311620400001794.
5 g of hydroxyethyl cellulose (HEC, CMC-Na, viscosity: 800-1200 Cps) was weighed and dissolved in 1000 mL of purified water, followed by addition of 10 g of Tween80.
After an overnight fast, male Balb/C mice were administered p.o. with the test compound at a dose of 5 mg/kg and a volume of 10 mL/kg.
0.04 mL of blood was taken from the orbit of the mouse before administration and at 0, 0.5, 1, 2, 4, 6, 8 and 24 hours after administration. The samples were stored in EDTA-K2 tubes, and centrifuged for 6 minutes at 4° C., 6000 rpm to separate the plasma. The plasma samples were stored at −80° C.
1) 160 μL of acetonitrile was added to 20 μL of the plasma sample for precipitation, and then the mixture was centrifuged at 3500×g for 5 to 20 minutes. 2) After the above process, 100 μL of the supernatant was taken to analyze the concentration of the test compound by LC/MS/MS.
2.7 Liquid Chromatography Analysis • Liquid chromatography condition: Shimadzu LC-20AD pump • Mass spectrometry condition: AB Sciex API 4000 mass spectrometer • Chromatographic column: phenomenex Gemiu 5 um C18 50×4.6 mm • Mobile phase: Eluent A was 0.1% formic acid in water, and Eluent B was acetonitrile • Flow rate: 0.8 mL/min • Elution time: 0-4.0 minutes the eluent is as follows:
The main parameters of pharmacokinetics were calculated by WinNonlin 8.2.

[4] = Metabolic stability in liver microsome (mouse); format: in vitro ADME; settings: mouse liver microsome 0.5 mg/mL, compound 1 μM; for half-life at 1 μM: liver microsomes, NADPH/UDPGA
Description: Test Example 5. Assay of Metabolic Stability in Liver Microsome
The objective of the experiment is to determine the stability of the compounds of the Examples in liver microsome of mouse, rat, dog and human.
Formulation of the working solution of the compound: The stock solution of the compound was added to phosphate buffer, and the final concentration was 20 μM.
Liver microsome was diluted with 100 mM phosphate buffer to obtain a final concentration of 0.625 mg/mL.
NADPH (reduced nicotinamide adenine dinucleotide phosphate) and UDPGA (uridine diphosphate glucuronic acid) were weighed respectively, followed by addition of 100 mM phosphate buffer. The final concentrations were 20 mM.
1 mg of Alamethicin was weighed, to which 200 μL of DMSO was added to obtain a 5 mg/mL solution. The solution was diluted with phosphate buffer to obtain a final concentration of 50 μg/mL.
2.5 Formulation of the reaction stop solution Stop solution: Cold acetonitrile containing 100 ng/mL labetalol hydrochloride and 400 ng/mL tolbutamide as internal standards.
400 μL of the prepared liver microsome, 25 μL of the working solution of the compound and 25 μL of Alamethicin were added to a 96-well plate successively, which was then pre-incubated at 37° C. for 10 min. 50 μL of the prepared NADPH/UDPGA was added to initiate the reaction, and the plate was incubated at 37° C. The total volume of the reaction system was 500 μL. The final contents of the components were as follows: […]

[5] = target: T3, CYP450 enzyme isoform 3A4 (Homo sapiens, UniProt P08684); assay: CYP enzyme single-point inhibition assay, 3A4; format: in vitro ADME; settings: human liver microsome, single-point method
T3 construct: single-point method using human liver microsome incubation system; from tissue; host or cells: human liver microsomes
Description: as §1, §2, §3, §4, §5, §6, §7, §8

T3 sequence (P08684 whole entry, canonical isoform): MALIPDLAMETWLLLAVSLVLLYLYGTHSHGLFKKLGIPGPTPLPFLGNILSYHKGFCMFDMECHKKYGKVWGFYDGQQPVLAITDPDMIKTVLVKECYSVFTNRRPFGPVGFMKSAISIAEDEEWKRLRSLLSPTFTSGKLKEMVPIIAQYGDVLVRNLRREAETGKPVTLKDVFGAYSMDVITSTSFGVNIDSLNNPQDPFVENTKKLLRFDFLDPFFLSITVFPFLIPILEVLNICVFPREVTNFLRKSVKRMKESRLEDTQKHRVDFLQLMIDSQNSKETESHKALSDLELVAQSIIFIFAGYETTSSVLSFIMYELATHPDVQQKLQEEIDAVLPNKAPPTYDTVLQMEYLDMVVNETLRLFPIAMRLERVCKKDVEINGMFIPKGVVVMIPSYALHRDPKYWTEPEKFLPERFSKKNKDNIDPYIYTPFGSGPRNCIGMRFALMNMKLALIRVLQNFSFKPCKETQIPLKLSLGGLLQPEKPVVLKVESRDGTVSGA
T2 sequence (P10635 whole entry, canonical isoform): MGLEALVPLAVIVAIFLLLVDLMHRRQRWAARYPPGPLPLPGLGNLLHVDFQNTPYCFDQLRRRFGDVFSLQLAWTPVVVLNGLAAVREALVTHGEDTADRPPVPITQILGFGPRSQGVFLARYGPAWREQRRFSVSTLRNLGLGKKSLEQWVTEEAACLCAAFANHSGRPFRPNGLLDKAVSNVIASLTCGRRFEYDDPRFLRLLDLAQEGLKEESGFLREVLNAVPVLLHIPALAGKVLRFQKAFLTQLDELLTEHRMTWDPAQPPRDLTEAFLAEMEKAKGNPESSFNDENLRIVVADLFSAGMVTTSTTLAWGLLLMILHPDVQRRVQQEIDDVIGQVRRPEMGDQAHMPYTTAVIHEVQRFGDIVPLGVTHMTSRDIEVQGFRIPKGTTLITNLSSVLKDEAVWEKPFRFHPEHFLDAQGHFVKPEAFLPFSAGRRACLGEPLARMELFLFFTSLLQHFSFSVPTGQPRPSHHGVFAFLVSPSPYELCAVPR

SMILES	IC50 [1]	IC50 [2]	AUC(0-t) [3]	MRT inf [3]	half-life [3]	Tmax [3]	Cmax [3]	half-life at 1 μM [4]	Remaining (%, 60 min) [4]	IC50 ([5]; 3A4-M, read-out: 3A4-M IC50)	IC50 ([5]; 3A4-T, read-out: 3A4-T IC50)
CCc1cc2n(CC(=O)Nc3ccc(F)cn3)c(=O)c3ccc(C(F)(F)F)nc3n2n1 [Example 34, 2-(2-Ethyl-5-oxo-8-(trifluoromethyl)pyrazolo[1,5-a]pyrido[3,2-e]pyrimidin-4(5H)-yl)-N-(5-fluoropyridin-2-yl)acetamide]	24.9 µM	> 100 µM	7580 ng·h/mL	2.3 h	1.4 h	1 h	2360 ng/mL	3.11 h	81.3%	> 100 µM	> 100 µM
O=C(Cn1c(=O)c2ccc(C(F)(F)F)nc2n2nc(Br)cc12)Nc1ccc(F)cn1 [Example 61-A, 2-(2-bromo-5-oxo-8-(trifluoromethyl)pyrazolo[1,5-a]pyrido[3,2-e]pyrimidin-4(5H)-yl)-N-(5-fluoropyridin-2-yl)acetamide]	72.1 µM	> 100 µM	30500 ng·h/mL	5.6 h	4.6 h	2 h	3430 ng/mL	6.82 h	92.5%	> 100 µM	> 100 µM
N#Cc1cc2n(CC(=O)Nc3ccc(F)cn3)c(=O)c3ccc(C(F)(F)F)nc3n2n1 [Example 68, 2-(2-Cyano-5-oxo-8-(trifluoromethyl)pyrazolo[1,5-a]pyrido[3,2-e]pyrimidin-4(5H)-yl)-N-(5-fluoropyridin-2-yl)acetamide]	> 100 µM	> 100 µM	10200 ng·h/mL	3.8 h	1.8 h	2 h	1830 ng/mL	2.75 h	91.6%	> 100 µM	> 100 µM
O=C(Cn1c(=O)c2ccc(C(F)(F)F)nc2n2nccc12)Nc1ccc(F)cn1 [Example 78, N-(5-Fluoropyridin-2-yl)-2-(5-oxo-8-(trifluoromethyl)pyrazolo[1,5-a]pyrido[3,2-e]pyrimidin-4(5H)-yl)acetamide]	> 100 µM	> 100 µM	5040 ng·h/mL	2.5 h	1.6 h	1 h	1290 ng/mL	568 h	99.3%	> 100 µM	> 100 µM
